One data set concerns the target T1, H^+/K^+-ATPase (Oryctolagus cuniculus, UniProt P27112).
T1 construct: collecting the middle layer (H^+/K^+-ATPase enriched gastric membranes) into a clean centrifugal tube; from tissue; host or cells: rabbit stomach (gastric mucosal microsomes, sucrose/Ficoll gradient centrifugation)
As to the kind of experiment: Inhibition of H+/K+-ATPase enzymatic activity (rabbit gastric mucosal microsomes, malachite green). It counts as biochemical. The settings on record: pH 6.5, 37° C. 30 min, read-out: The median inhibitory concentration (IC50) of the compound to the activity of H^+/K^+-ATPase. The text has this:
Biological Evaluation on H^+/K^+-ATPase
The following screening assays in vitro are used to evaluate the inhibiting effect of the compound of the Invention on the enzymatic activity of H^+/K^+-ATPase. Experimental materials and instruments are as follows:
1) Rabbit gastric mucosal microsomes (enriched H^+/K^+-ATPase; extracted by the Applicant)
2) Buffer solution: 50 mmol/L HEPEs-Tris, pH=6.5, 5 mmol/L magnesium chloride, 10 μmol/L valinomycin;
3) Buffer solution: 50 mmol/L HEPEs-Tris, pH=6.5, 5 mmol/L magnesium chloride, 10 μmol/L valinomycin, 5 mmol/L potassium chloride;
4) ATP: diluting ATP to 5 mM with buffer solution 1;
5) Malachite green solution: dissolving 0.12% of malachite green in 2.5 mol/L of sulfuric acid; mixing 7.5% (V/V) of ammonium molybdate and 11% of Tween 20(V/V) in a proportion of 100:25:2;
6) The method for extracting rabbit gastric mucosal microsomes (enriched H^+/K^+-ATPase) is sucrose gradient centrifugation, i.e., washing the rabbit stomach with tap water and 3M NaCl solution respectively and removing the surface moisture with filter paper; adding the pre-cooled buffer solution (4 ml/g tissue) for homogenation in a tissue homogenizer for 2-5 min; removing the large tissue particles in a way of centrifugation (600 g, 10 mm) if any after homogenation; transferring the supernatant to a clean centrifugal tube for centrifugation for 30 min at 2000 g; then transferring the supernatant to a clean centrifugal tube for further centrifugation for 90 min at 100000 g; collecting the sediment; suspending the sediment in the homogenate and blowing it to be uniform; measuring the protein concentration with Bradford method; adjusting the concentration to 10 mg/ml; adding 7.5% Ficoll demixing fluid in an equal proportion for centrifugation for 60 min at 100000 g; collecting the middle layer (H^+/K^+-ATPase enriched gastric membranes) into a clean centrifugal tube; diluting it with 4-5 times of homogenate for further centrifugation for 90 min at 100000 g; collecting the sediment; suspending the sediment in the homogenate for homogenation with a glass homogenizer; measuring the protein concentration with Bradford method and adjusting the concentration to 22.5 mg/ml; freezing it under −80° C. for standby. Experimental Process:
Adding 5 μL of gastric mucosal microsomes (H^+/K^+-ATPase) in 45 µL of buffer solution 2; adding 5 μL of the compound solution; adding 5 μL 5 mM of ATP to start the reaction for pre-reaction at 37° C. for 30 min; adding 15 μL of malachite green solution to terminate the reaction; balancing at ambient temperature for 20 min; reading the value of absorbed light at 620 nm.
Meanwhile, conducting another reaction with the same volume without potassium chloride for background, which will be subtracted when calculating the enzymatic activity.
The value of Compound IC50 is calculated through the inhibition ratios at different concentrations.

The target in a further data set is T2, hERG potassium channel (Homo sapiens, UniProt Q12809).
T2 construct: expressed in transfected cells
T2 sequence (Q12809 whole entry): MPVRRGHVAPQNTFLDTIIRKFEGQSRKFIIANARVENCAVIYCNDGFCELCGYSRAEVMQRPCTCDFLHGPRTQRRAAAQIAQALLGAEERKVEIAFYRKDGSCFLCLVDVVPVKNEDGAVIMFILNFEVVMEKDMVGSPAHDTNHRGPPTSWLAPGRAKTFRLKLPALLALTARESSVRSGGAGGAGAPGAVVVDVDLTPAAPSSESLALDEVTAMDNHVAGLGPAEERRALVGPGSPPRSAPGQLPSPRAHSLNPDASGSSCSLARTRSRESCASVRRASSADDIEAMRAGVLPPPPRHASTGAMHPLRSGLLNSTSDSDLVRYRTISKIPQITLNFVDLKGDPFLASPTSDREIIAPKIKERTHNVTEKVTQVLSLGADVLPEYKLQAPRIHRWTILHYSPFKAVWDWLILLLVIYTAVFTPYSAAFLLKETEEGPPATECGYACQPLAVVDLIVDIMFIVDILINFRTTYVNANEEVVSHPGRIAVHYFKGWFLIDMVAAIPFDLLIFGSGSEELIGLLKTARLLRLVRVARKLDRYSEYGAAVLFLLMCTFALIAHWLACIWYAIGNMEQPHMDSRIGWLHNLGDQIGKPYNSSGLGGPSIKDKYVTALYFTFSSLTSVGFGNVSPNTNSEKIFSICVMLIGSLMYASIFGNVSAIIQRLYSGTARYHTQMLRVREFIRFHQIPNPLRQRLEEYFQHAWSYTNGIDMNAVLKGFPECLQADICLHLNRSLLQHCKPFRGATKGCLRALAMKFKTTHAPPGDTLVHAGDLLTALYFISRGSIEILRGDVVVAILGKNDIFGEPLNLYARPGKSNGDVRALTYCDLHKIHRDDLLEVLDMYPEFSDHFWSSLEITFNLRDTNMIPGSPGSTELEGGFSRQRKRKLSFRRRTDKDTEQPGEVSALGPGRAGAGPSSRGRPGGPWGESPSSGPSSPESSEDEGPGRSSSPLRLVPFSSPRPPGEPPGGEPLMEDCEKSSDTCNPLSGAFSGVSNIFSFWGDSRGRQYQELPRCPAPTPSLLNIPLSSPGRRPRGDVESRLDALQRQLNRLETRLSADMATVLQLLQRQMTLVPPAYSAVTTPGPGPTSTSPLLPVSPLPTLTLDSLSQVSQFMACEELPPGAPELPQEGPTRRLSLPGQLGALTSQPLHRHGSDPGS
Description: Whole cell patch clamp, inhibition of hERG tail current. It counts as cell-based. The procedure:
Test Case 2: Studies on the Effect of Compounds EXP 1, TAK-438 and EXP 12 on hERG Potassium Channel Testing System 1) Cell culture: the hERG cell is cultured in a routine way, which is subcultured in a DMEM containing 10% of fetal calf serum and 250 μg/ml of G418. 2) Fluid preparation: the composition of the extracellular fluid used in the experiment of whole cell patch clamp comprises (mM): NaCl 145, MgCl21, KCl 4, Glucose 10, HEPES 10 and CaCl22; adjusting the pH value of NaOH to 7.4 and adjusting the value of osmotic pressure to 300 mOsm with sucrose. The composition of the intracellular fluid comprises (mM):KCl 140; MgCl 21; EGTA 5; HEPES 10 and Na2ATP 4; adjusting the pH value of KOH to 7.2 and adjusting the value of osmotic pressure to 290 mOsm with sucrose.
Main composition of the extracellular and intracellular fluid
Test Procedure 1) Electrophysiological recording: taking out one culture dish for each test; cleaning it with the extracellular fluid twice and placing it on the inverted microscope stage. The experiment of whole cell patch clamp is conducted at ambient temperature; the resistance at the microelectrode tip of the used borosilicate glass is 3-5 MQ. 2) Voltage stimulus plan and current record: clamping down the membrane potential to −80 mV under the whole-cell recording mode; giving +50 mV of depolarized voltage stimulus to the cell every 30 s and lasting for 2 s, then repolarizing it to −50 mV and lasting for 3 s, thus, the tail current of hERG can be extracted. Giving 50 ms, −50 mV repolarized voltage to the cell before depolarized voltage stimulus; the current recorded at such voltage is as the base line for calculating the tail current of hERG. Only the cells meet the recording standard can be used in the test of the compounds to be tested. The hERG tail current should be recorded stably at last for 3 min in the extracellular fluid before the compound is added. After perfusion of drugs, it can be regarded that the drug effect reaches a steady state if the change of the amplitude of hERG tail current is less than 5%. If the current fails to reach a steady state in 6 min, the test should also be terminated. 3) Testing standard: the membrane resistance in the experiment should be more than 1,000 MQ. The initial current should be more than 300 pA. The series resistance should be less than 12 MQ after the whole-cell recording mode is constructed. The leakage current is less than 10% of the ionic channel current (taking −80 pA as the peak value). Data Analysis
Using Clampex 10.2 to record the original data and saving the data in the format of *abf. Using pCLAMP 10.1 to conduct data collection and analysis. Selecting 4-5 sweeps when the current is in a steady state before the compound is added; calculating the average peak value to serve as the contrasted current amplitude. Selecting 4-5 sweeps when the current is in a steady state after the compound is added; calculating the average peak value to serve as the residual amplitude of the inhibited current. The inhibition ratio of the compound to be tested to hERG current is calculated as per the equation as: % inhibition ratio={1−(current residual amplitude)/(contrasted current amplitude)}*100
After the inhibition ratio (average value±standard deviation) of the compound to be tested to the hERG current of different concentrations is obtained through the above computing method, the data with logistic equation should be fitted to obtain the value of IC50.

The subject of data set [1] is gastric acid secretion induced by histamine. Description: Gastric acid secretion induced by histamine in pylorus-ligated rats. It counts as in vivo. Particulars: SD rat. The text has this: Test Case 3: Studies on the Effect of EXP 1, TAK-438 and EXP 14 on Gastric Acid Secretion Induced by Histamine Experimental Materials 1) Animals
SD rat, class SPF, male, 180-220 g; provided by Zhejiang Experimental Animal Center; production permit no.: SCXK (Z) 2014-0001.
Compound EXP 1, dissolved with a small amount of acetic acid (about 1.10N EXP 1), 0.9% sodium chloride solution to a clear liquid with needed concentration before use.
>Compound TAK-438, dissolved with 0.9% sodium chloride solution to a clear liquid with needed concentration before use.
Compound EXP 14, dissolved with a small amount of acetic acid (about 1.10N EXP 14), 0.9% sodium chloride solution to a clear liquid with needed concentration before use.
Fetching 60 SD rats of class SPF with a weight of 180-220 g; dividing the rats into 5 groups as per weights randomly, including Group EXP 1 (2 mg/kg), Group TAK-438 (2 mg/kg, as per free alkali), Group EXP 14 (2 mg/kg), Group negative control (normal saline of equal volume) and Group model control (normal saline of equal volume); 12 rats per group. Absolute diet for 24 h, water is allowed. After 24 h, administrating drugs to the tested compound groups A, B and C by gavage with a volume of 1 ml/100 g; each group is administered once; the negative control and model negative control groups are administrated by gavage with normal saline of equal volume. Narcotizing the rat with 300 mg/kg of chloral hydrate (1 ml/100 g) and fixing it onto the rat board; cutting to open the abdominal wall along the medioventral line from the mucronate cartilage with an incision of 2-3 cm; slightly pushing the left costal margin upward to expose the stomach in the incision. Ligaturing the pylorus thereunder (leave alone the adjacent blood vessels) and then suturing the abdominal incision. Giving histamine dihydrochloride (30 mg/10 m/kg) hypodermically to the rat 1 h after the tested compound or normal saline are administrated. Choking the rat to death with excessive CO2 3 h after the histamine is given; taking out the stomach and collecting the gastric contents for centrifugation at 3000 rpm/min; adjusting the PH value of the acid fluid to 7.0 with 0.1 mol/L of NaOH titration and then calculating the total acid content of the 3 h. Refer to Table 3 for results.

SMILES strings stand for the structures. Marks after values point to notes of the source that are not given here. Bounds are passed on as bounds.

T1 sequence (P27112 whole entry): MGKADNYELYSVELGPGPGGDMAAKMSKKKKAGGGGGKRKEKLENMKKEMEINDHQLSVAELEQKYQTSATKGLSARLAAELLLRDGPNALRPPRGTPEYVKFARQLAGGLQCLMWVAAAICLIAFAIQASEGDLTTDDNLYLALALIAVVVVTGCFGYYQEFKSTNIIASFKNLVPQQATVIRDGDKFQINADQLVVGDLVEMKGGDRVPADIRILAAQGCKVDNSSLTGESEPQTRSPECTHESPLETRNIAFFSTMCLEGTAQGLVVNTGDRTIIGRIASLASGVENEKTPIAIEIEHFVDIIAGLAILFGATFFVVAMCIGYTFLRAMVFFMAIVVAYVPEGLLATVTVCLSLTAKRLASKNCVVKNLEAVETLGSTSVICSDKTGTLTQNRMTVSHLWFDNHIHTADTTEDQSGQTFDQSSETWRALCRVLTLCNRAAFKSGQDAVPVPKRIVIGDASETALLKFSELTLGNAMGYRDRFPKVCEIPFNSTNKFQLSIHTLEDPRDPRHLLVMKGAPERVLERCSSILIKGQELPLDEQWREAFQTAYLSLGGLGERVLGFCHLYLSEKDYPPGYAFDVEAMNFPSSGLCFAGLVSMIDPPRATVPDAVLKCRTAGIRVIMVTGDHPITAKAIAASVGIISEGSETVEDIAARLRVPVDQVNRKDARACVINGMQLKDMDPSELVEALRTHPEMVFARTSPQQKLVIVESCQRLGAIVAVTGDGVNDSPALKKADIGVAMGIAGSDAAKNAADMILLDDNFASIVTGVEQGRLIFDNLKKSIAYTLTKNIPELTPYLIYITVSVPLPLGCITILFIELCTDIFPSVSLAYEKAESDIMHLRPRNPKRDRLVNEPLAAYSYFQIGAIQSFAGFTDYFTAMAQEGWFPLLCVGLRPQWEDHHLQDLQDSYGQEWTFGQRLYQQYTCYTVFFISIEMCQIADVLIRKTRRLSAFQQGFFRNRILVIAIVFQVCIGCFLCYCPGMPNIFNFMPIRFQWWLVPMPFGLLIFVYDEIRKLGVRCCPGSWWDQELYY
T1 sequence (P18597 whole entry partner): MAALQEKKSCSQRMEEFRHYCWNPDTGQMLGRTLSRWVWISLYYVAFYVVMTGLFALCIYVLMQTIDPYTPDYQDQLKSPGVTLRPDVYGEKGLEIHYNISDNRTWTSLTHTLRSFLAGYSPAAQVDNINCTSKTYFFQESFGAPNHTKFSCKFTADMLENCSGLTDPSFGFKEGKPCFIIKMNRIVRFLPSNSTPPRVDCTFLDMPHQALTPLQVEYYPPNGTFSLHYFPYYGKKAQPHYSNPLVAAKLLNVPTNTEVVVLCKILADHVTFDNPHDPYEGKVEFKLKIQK

As for `CNCc1cc(-c2ccccc2F)n(S(=O)(=O)c2cccc(OCCOc3ccccc3)c2)c1` [EXP 10, 1-(5-(2-Fluorobenzene)-1-((3-(2-Phenoxy Ethyoxyl)Phenyl)Sulfonyl)-1H-Pyrrole-3-Yl)-N-Methyl Methylamine], the IC50 on H^+/K^+-ATPase was less than 100 nM.
On to `CNCc1cc(-c2ccccc2F)n(S(=O)(=O)c2cccc(OCC3CNCCO3)c2)c1` (stereo not shown) [EXP 8, 1-(5-(2-fluorobenzene)-1-((3-(morpholinyl-2-yl-methoxyl)phenyl)sulfonyl)-1H-pyrrole-3-yl)-N-methyl methylamine], for which, at H^+/K^+-ATPase, the IC50 was in the range of 100 to 1000 nM.
Take `CNCc1cc(-c2ccccc2F)n(S(=O)(=O)c2cccc(OC)c2)c1` [EXP 12]: the IC50 is less than 100 nM on H^+/K^+-ATPase and 3.95 µM against hERG potassium channel (human, hERG cells (host cell line not named), pH 7.4, whole cell patch clamp, logistic fit). Moreover, on hERG potassium channel (max. test concentration 30 μM), the “Inhibition ratio of max. test concentration (hERG current)” value is 90.33 ± 2.16%.
As to `CNCc1cc(-c2ccccc2F)n(S(=O)(=O)c2cccc(OCC(C)(C)COC)c2)c1` [EXP 9, 1-(5-(2-fluorobenzene)-1-((3-(3-methoxy-2,2-dimethylpropoxy)phenyl)sulfonyl)-1H-pyrrole-3-yl)-N-methyl methylamine], the IC50 on H^+/K^+-ATPase was 100 to 1000 nM.
In the case of `CNCc1cc(-c2ccccc2F)n(S(=O)(=O)c2cccc(OCCN3CCOCC3)c2)c1` [EXP 5, 1-(5-(2-Fluorobenzene)-1-((3-(2-Morpholinyl Ethyoxyl)Phenyl)Sulfonyl)-1H-Pyrrole-3-Yl)-N-Methyl Methylamine], the IC50 on H^+/K^+-ATPase was 100 to 1000 nM.
For the compound `CNCc1cc(-c2ccccc2F)n(S(=O)(=O)c2cccc(OCCOC)c2)c1` [EXP 3, 1-(5-(2-fluorobenzene)-1-((3-(2-methoxyethyoxyl)phenyl)sulfonyl)-1H-pyrrole-3-yl)-N-methyl methylamine], the IC50 at H^+/K^+-ATPase fell in the range of 100 to 1000 nM.
For `CNCc1cc(-c2ccccc2F)n(S(=O)(=O)c2cccc(OCCCS(C)(=O)=O)c2)c1` [EXP 4, 1-(5-(2-fluorobenzene)-1-((3-(3-methylsulphonylpropoxy)phenyl)sulfonyl)-1H-pyrrole-3-yl)-N-methyl methylamine], the IC50 at H^+/K^+-ATPase is less than 100 nM.
On the same count and under the same terms, to `CNCc1cc(-c2ccccc2F)n(S(=O)(=O)c2cccc(OCCN3CCCCC3)c2)c1` [EXP 11] belongs 1000 to 5000 nM.
As for `CNCc1cc(-c2ccccc2F)n(S(=O)(=O)c2cccc(OCC(=O)NC)c2)c1` [EXP 14, 2-(3-((2-(2-fluorophenyl)-4-((methylamine)methyl)-1H-pyrrole-1-yl)sulfonyl)phenoxy)-N-methylacetamide], the Total acid content in data set [1] (2 mg/kg by gavage 1 h before histamine, total acid of 3 h) was 0.65 ± 0.20** 10^−4 mol. Further, in data set [1] (2 mg/kg by gavage, compared with model control), the “Acid inhibiting rate %” value amounted to 40.4%. Further, the IC50 at H^+/K^+-ATPase is 100 to 1000 nM.
With `CNCCCOc1cccc(S(=O)(=O)n2cc(CNC)cc2-c2ccccc2F)c1` [EXP 7, 3-(3-((2-(2-fluorobenzene)-4-((methylamino)methylene)-1H-pyrrole-1-yl)sulfonyl)phenoxy)-N-methyl-n-propylamine], at H^+/K^+-ATPase, the IC50 was 100 to 1000 nM.
For `CNCc1cc(-c2ccccc2F)n(S(=O)(=O)c2cccc(NCCN3CCOCC3)c2)c1` [EXP 6, 3-((2-(2-Fluorobenzene)-4-((Methylamino)Methylene)-1H-Pyrrole-1-Yl)Sulfonyl)-N-(2-Morpholinyl Ethyl) Henylamine], on H^+/K^+-ATPase, the IC50 fell in the range of 100 to 1000 nM.
Still for that read-out and setting: to `CNCc1cc(-c2ccccc2F)n(S(=O)(=O)c2cccc(OC3CCN(C(C)=O)C3)c2)c1` (stereo not shown) [EXP 2, 1-(3-(3-((2-(2-fluorobenzene)-4-((methylamino)methyl)-1H-yl)sulfonyl)phenoxy)pyrrolidine-1-yl)ethyl-1-ketone] belongs 100 to 1000 nM.
